Patent EP4692062A1, “NOVEL AMIDE-BASED COMPOUND AND COMPOSITION COMPRISING SAME” (Amorepacific Corporation, priority 2023, dated 2024)

Tests used:
Assay type in all cases: biochemical
[1] = molecular target: T1, MMP-9 (Homo sapiens, UniProt P14780); test: MMP9 Inhibitor Screening Assay Kit (ab139448), colorimetric thiopeptide substrate, OD412; details: compound at 50 nM; for remaining activity at 0.05 µM: remaining enzyme activity, untreated group = 100%, n=2; for inhibition at 0.05 µM: read-out: MMP-9 (%) at 50 nM (inhibitory activity)
T1 construct: purchased Abchem (so in the source)
T1 sequence (P14780 94-707): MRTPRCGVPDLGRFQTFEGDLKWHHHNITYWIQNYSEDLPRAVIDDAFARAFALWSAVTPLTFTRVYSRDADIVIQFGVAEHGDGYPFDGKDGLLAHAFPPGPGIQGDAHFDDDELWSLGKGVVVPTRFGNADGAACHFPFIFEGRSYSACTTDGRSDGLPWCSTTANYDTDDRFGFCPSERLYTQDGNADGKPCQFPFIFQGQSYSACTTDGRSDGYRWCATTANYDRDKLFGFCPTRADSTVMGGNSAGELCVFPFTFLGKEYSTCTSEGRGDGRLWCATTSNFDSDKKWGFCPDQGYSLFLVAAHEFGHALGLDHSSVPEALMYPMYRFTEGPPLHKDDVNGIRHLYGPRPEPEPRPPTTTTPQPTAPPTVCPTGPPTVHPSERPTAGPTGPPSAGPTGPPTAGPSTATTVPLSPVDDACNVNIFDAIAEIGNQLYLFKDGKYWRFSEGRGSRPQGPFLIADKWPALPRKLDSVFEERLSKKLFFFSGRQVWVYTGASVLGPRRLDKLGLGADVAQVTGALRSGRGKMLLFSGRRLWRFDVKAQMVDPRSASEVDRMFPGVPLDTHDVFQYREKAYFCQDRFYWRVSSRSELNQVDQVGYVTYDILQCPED
Description: Enzyme activity (%) at the same concentration was compared with treatment with 0.5 µM MMP-1 activity and 50 nM MMP-2 and MMP-9 activity (n=2). Here, enzyme activity (%) refers to the enzyme activity (%) of the experimental group when the untreated group is considered to have 100% enzyme activity. To evaluate the effect of the new compound on the enzyme activity, the color change was measured by following the provided protocol using a kit sold by Abchem as follows. Enzyme activity was obtained by comparing absorbance per minute with the untreated group. • MMP1 Inhibitor Screening Assay Kit (ab139443) • MMP2 Inhibitor Screening Assay Kit (ab139446) • MMP9 Inhibitor Screening Assay Kit (ab139448) As MMP activity increases, the substrate is decomposed and the OD412 level increases. Therefore, the change in OD412 level (OD value) per minute was measured and the value was obtained according to the enzyme activity calculation formula below. Here, OD412 means optical density or absorbance at 412 nm. • Thiopeptide (Ac-PLG-[2-mercapto-4-methyl-pentanoyl]-LG-OC2H5) as a chromogenic substrate. • The MMP cleavage site peptide bond was replaced by the thioester bond of the thiopeptide. • Hydrolysis of this bond by MMP generates a sulfhydryl group, which reacts with DTNB [5,5'-dithiobis(2-nitrobenzoic acid), Ellman's reagent] to form 2-nitro-5-thiobenzoic acid. , which can be measured by its absorbance at 412 nm. (ε=13,600 M^-1cm^-1 above pH 6.0) New compound enzyme activity(%) = (Vnew compound/Vuntreated group)*100 [formula] V = change in OD value per minute

[2] = molecular target: T2, MMP-2 (Homo sapiens, UniProt P08253); test: MMP2 Inhibitor Screening Assay Kit (ab139446), colorimetric thiopeptide substrate, OD412; details: remaining enzyme activity, untreated group = 100%; compound at 50 nM; n=2
T2 construct: purchased Abchem (so in the source)
T2 sequence (P08253 110-660): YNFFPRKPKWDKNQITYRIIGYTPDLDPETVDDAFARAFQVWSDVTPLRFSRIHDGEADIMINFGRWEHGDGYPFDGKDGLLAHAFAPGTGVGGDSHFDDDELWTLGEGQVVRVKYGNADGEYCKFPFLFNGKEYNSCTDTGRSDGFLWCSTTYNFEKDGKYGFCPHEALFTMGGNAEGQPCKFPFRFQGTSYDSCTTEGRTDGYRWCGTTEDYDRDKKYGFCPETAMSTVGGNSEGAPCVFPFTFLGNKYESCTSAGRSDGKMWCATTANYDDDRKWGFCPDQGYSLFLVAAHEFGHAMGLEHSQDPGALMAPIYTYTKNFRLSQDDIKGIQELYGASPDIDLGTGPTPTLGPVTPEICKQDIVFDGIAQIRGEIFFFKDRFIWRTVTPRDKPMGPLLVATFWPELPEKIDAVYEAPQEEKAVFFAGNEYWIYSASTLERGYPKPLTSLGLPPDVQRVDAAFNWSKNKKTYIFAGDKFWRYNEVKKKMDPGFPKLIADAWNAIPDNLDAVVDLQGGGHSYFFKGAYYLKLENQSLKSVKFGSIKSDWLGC
Description: Enzyme activity (%) at the same concentration was compared with treatment with 0.5 µM MMP-1 activity and 50 nM MMP-2 and MMP-9 activity (n=2). Here, enzyme activity (%) refers to the enzyme activity (%) of the experimental group when the untreated group is considered to have 100% enzyme activity. To evaluate the effect of the new compound on the enzyme activity, the color change was measured by following the provided protocol using a kit sold by Abchem as follows. […] Therefore, the change in OD412 level (OD value) per minute was measured and the value was obtained according to the enzyme activity calculation formula below. […] (ε=13,600 M^-1cm^-1 above pH 6.0) New compound enzyme activity(%) = (Vnew compound/Vuntreated group)*100 [formula] V = change in OD value per minute

[3] = molecular target: T3, MMP-1 (Homo sapiens, UniProt P03956); test: MMP1 Inhibitor Screening Assay Kit (ab139443), colorimetric thiopeptide substrate, OD412; details: for remaining activity at 0.5 µM / remaining activity at 10 µM: remaining enzyme activity; for remaining activity at 0.5 µM: untreated group = 100%, compound at 0.5 uM, n=2; for inhibition at 10 µM / remaining activity at 10 µM: T-05~20 at 10 uM; for inhibition at 10 µM: read-out: MMP-1 (%) (inhibitory efficacy, high concentration); for remaining activity at 10 µM: read-out: MMP-1 (%) (enzyme activity, high concentration)
T3 construct: purchased Abchem (so in the source)
T3 sequence (P03956 100-269 limits assumed): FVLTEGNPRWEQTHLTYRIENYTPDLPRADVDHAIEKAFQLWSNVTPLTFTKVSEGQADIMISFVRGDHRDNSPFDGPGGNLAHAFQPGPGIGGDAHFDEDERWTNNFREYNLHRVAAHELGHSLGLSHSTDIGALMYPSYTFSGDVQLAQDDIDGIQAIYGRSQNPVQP
Description: Enzyme activity (%) at the same concentration was compared with treatment with 0.5 µM MMP-1 activity and 50 nM MMP-2 and MMP-9 activity (n=2). Here, enzyme activity (%) refers to the enzyme activity (%) of the experimental group when the untreated group is considered to have 100% enzyme activity.
To evaluate the effect of the new compound on the enzyme activity, the color change was measured by following the provided protocol using a kit sold by Abchem as follows.
As MMP activity increases, the substrate is decomposed and the OD412 level increases. Therefore, the change in OD412 level (OD value) per minute was measured and the value was obtained according to the enzyme activity calculation formula below. […] (ε=13,600 M^-1cm^-1 above pH 6.0)
New compound enzyme activity(%) = (Vnew compound/Vuntreated group)*100 [formula] V = change in OD value per minute

[4] = molecular target: T2, MMP-2; test: MMP2 Inhibitor Screening Assay Kit (ab139446), colorimetric thiopeptide substrate, OD412; details: T-05~20 at 10 uM; for inhibition at 10 µM: read-out: MMP-2 (%) (inhibitory efficacy, high concentration); for remaining activity at 10 µM: remaining enzyme activity, read-out: MMP-2 (%) (enzyme activity, high concentration)

SMILES: CC(=NO)c1ccc(S(=O)(=O)N2CCCCC2C(=O)NO)cc1 (centres unmarked) [T-35, N-hydroxy-1-((4-(1-(hydroxyimino)ethyl)phenyl)sulfonyl)piperidine-2-carboxamide]
- remaining activity at 0.05 µM [1]: 19.9%

SMILES: O=C(NO)C1CCCCN1S(=O)(=O)c1ccccc1 (centres unmarked) [T-01, N-hydroxy-1-(phenylsulfonyl)piperidine-2-carboxamide]
- remaining activity at 0.05 µM [2]: 81.6%
- remaining activity at 0.5 µM [3]: 34.2%
- remaining activity at 0.05 µM [1]: 79.1%

SMILES: O=C(NO)C1CCCCN1S(=O)(=O)c1ccc(F)cc1 (centres unmarked) [T-21, 1-((4-fluorophenyl)sulfonyl)-N-hydroxypiperidine-2-carboxamide]
- remaining activity at 0.05 µM [2]: 81.1%
- remaining activity at 0.5 µM [3]: 9.2%
- remaining activity at 0.05 µM [1]: 100%

SMILES: Cc1cc(C)c(S(=O)(=O)NC(C(=O)NO)C(C)C)c(C)c1 (centres unmarked) [T-20, N-hydroxy-3-methyl-2-((2,4,6-trimethylphenyl)sulfonamido)butanamide]
- remaining activity at 0.05 µM [2]: 97.8%
- inhibition at 10 µM [3]: 0%
- remaining activity at 0.5 µM [3]: 100%
- remaining activity at 10 µM [3]: 100%
- inhibition at 0.05 µM [1]: 0%
- remaining activity at 0.05 µM [1]: 100%
- inhibition at 10 µM [4]: 59.9%
- remaining activity at 10 µM [4]: 40.1%

SMILES: CCCCOc1ccc(S(=O)(=O)N2CCCCC2C(=O)NO)cc1 (centres unmarked) [T-04, 1-((4-butoxyphenyl)sulfonyl)-N-hydroxypiperidine-2-carboxamide]
- remaining activity at 0.05 µM [1]: 0%

SMILES: O=C(NO)C1CCCCN1S(=O)(=O)c1ccc(-c2ccccc2)cc1 (centres unmarked) [T-02, 1-([1,1'-biphenyl]-4-ylsulfonyl)-N-hydroxypiperidine-2-carboxamide]
- remaining activity at 0.05 µM [1]: 41.9%

SMILES: CC(C)CC(NS(=O)(=O)c1ccc(C(C)(C)C)cc1)C(=O)NO (centres unmarked) [T-13, 2-((4-(tert-butyl)phenyl)sulfonamido)-N-hydroxy-4-methylpentanamide]
- remaining activity at 0.05 µM [2]: 100%
- inhibition at 10 µM [3]: 0%
- remaining activity at 0.5 µM [3]: 100%
- remaining activity at 10 µM [3]: 100%
- remaining activity at 0.05 µM [1]: 100%
- inhibition at 10 µM [4]: 71.9%
- remaining activity at 10 µM [4]: 28.1%

SMILES: CCCCOc1ccc(S(=O)(=O)N2CCCC2C(=O)NO)cc1 (centres unmarked) [T-29, 1-((4-butoxyphenyl)sulfonyl)-N-hydroxypyrrolidine-2-carboxamide]
- remaining activity at 0.05 µM [2]: 18.9%
- remaining activity at 0.5 µM [3]: 100%
- remaining activity at 0.05 µM [1]: 50.2%

SMILES: CCCc1ccc(S(=O)(=O)N2CCCCC2C(=O)NO)cc1 (centres unmarked) [T-24, N-hydroxy-1-((4-propylphenyl)sulfonyl)piperidine-2-carboxamide]
- remaining activity at 0.05 µM [2]: 57.7%
- remaining activity at 0.5 µM [3]: 78.4%
- remaining activity at 0.05 µM [1]: 99%

SMILES: O=C(NO)C(Cc1ccccc1)NS(=O)(=O)c1ccc2ccccc2c1 (centres unmarked) [T-11, N-hydroxy-2-(naphthalene-2-sulfonamido)-3-phenylpropanamide]
- remaining activity at 0.05 µM [2]: 82.7%
- inhibition at 10 µM [3]: 42.9%
- remaining activity at 0.5 µM [3]: 100%
- remaining activity at 10 µM [3]: 57.1%
- remaining activity at 0.05 µM [1]: 100%
- inhibition at 10 µM [4]: 93.8%
- remaining activity at 10 µM [4]: 6.2%

SMILES: CC(C)CC(NS(=O)(=O)c1ccc(-c2ccccc2)cc1)C(=O)NO (centres unmarked) [T-12, 2-([1,1'-biphenyl]-4-sulfonamido)-N-hydroxy-4-methylpentanamide]
- remaining activity at 0.05 µM [1]: 70.6%

SMILES: CC(C)CC(NS(=O)(=O)c1ccccc1)C(=O)NO (centres unmarked) [T-36, N-hydroxy-4-methyl-2-(phenylsulfonamido)pentanamide]
- remaining activity at 0.05 µM [2]: 100%
- remaining activity at 0.5 µM [3]: 98.2%
- remaining activity at 0.05 µM [1]: 97.4%

SMILES: Cc1cc(C)c(S(=O)(=O)NC(CC(C)C)C(=O)NO)c(C)c1 (centres unmarked) [T-15, N-hydroxy-4-methyl-2-((2,4,6-trimethylphenyl)sulfonamido)pentanamide]
- remaining activity at 0.05 µM [2]: 100%
- inhibition at 10 µM [3]: 0%
- remaining activity at 0.5 µM [3]: 100%
- remaining activity at 10 µM [3]: 100%
- remaining activity at 0.05 µM [1]: 100%
- inhibition at 10 µM [4]: 34.8%
- remaining activity at 10 µM [4]: 65.2%

SMILES: CC(C)C(NS(=O)(=O)c1ccc(C(C)(C)C)cc1)C(=O)NO (centres unmarked) [T-18, 2-((4-(tert-butyl)phenyl)sulfonamido)-N-hydroxy-3-methylbutanamide]
- remaining activity at 0.05 µM [2]: 99.9%
- inhibition at 10 µM [3]: 0%
- remaining activity at 0.5 µM [3]: 100%
- remaining activity at 10 µM [3]: 100%
- remaining activity at 0.05 µM [1]: 100%
- inhibition at 10 µM [4]: 0%
- remaining activity at 10 µM [4]: 100%

SMILES: Cc1cc(C)c(S(=O)(=O)NC(Cc2ccccc2)C(=O)NO)c(C)c1 (centres unmarked) [T-10, N-hydroxy-3-phenyl-2-((2,4,6-trimethylphenyl)sulfonamido)propanamide]
- remaining activity at 0.05 µM [2]: 95.6%
- inhibition at 10 µM [3]: 0%
- remaining activity at 0.5 µM [3]: 100%
- remaining activity at 10 µM [3]: 100%
- remaining activity at 0.05 µM [1]: 100%
- inhibition at 10 µM [4]: 15.5%
- remaining activity at 10 µM [4]: 84.5%

SMILES: CC(=O)Nc1ccc(S(=O)(=O)N2CCCC2C(=O)NO)cc1 (centres unmarked) [T-40, 1-((4-acetamidophenyl)sulfonyl)-N-hydroxypyrrolidine-2-carboxamide]
- remaining activity at 0.05 µM [2]: 100%
- remaining activity at 0.5 µM [3]: 100%
- remaining activity at 0.05 µM [1]: 100%

SMILES: CC(C)(C)c1ccc(S(=O)(=O)NC(Cc2ccccc2)C(=O)NO)cc1 (centres unmarked) [T-08, 2-((4-(tert-butyl)phenyl)sulfonamido)-N-hydroxy-3-phenylpropanamide]
- remaining activity at 0.05 µM [2]: 100%
- inhibition at 10 µM [3]: 12.8%
- remaining activity at 0.5 µM [3]: 100%
- remaining activity at 10 µM [3]: 87.2%
- remaining activity at 0.05 µM [1]: 100%
- inhibition at 10 µM [4]: 0%
- remaining activity at 10 µM [4]: 100%

SMILES: Cc1cc(C)c(S(=O)(=O)N2CCCCC2C(=O)NO)c(C)c1 (centres unmarked) [T-05, N-hydroxy-1-(mesitylsulfonyl)piperidine-2-carboxamide]
- remaining activity at 0.05 µM [2]: 100%
- inhibition at 10 µM [3]: 8.3%
- remaining activity at 0.5 µM [3]: 100%
- remaining activity at 10 µM [3]: 91.7%
- remaining activity at 0.05 µM [1]: 100%
- inhibition at 10 µM [4]: 15.8%
- remaining activity at 10 µM [4]: 84.2%

SMILES: CCCCOc1ccc(S(=O)(=O)NC(CC(C)C)C(=O)NO)cc1 (centres unmarked) [T-14, 2-((4-butoxyphenyl)sulfonamido)-N-hydroxy-4-methylpentanamide]
- remaining activity at 0.05 µM [2]: 0%
- remaining activity at 0.5 µM [3]: 100%
- inhibition at 0.05 µM [1]: 26.5%
- remaining activity at 0.05 µM [1]: 73.5%
